We go through three molecules from patent US20080171706A1, “Anti-Adhesive Compounds to Prevent and Treat Bacterial Infections” (priority 2004, published 2008).

Holding throughout (test): biochemical
For one test, the target named is T1, FimHtrJ96 (Escherichia coli, UniProt P08191).
T1 construct: coding for the lectin domain of FimH (residues 1-158) with a C-terminal 6-histidine tag; made in house; host or cells: E. coli HB101 (lacking the fim operon), periplasmic extract, plasmid pPKL241
Type of test: binding, uropathogenic E. coli strain J96. As to conditions: for pKd: Table 3, [3H]-mannose displacement assay (mannose measured directly), read-out: KD J96; for ΔG° J96: Table 3, calculated from KD. On the procedure:
To measure the dissociation constant for FimH:alkyl or aryl-mannoside binding, two different binding assays were developed. The first binding assay uses [^3H]-mannose. The amount of radioactively labeled mannose bound to FimHtrJ96 was measured at six different concentrations of [^3H]-mannose, and a hyperbolic curve fitted to the resulting data (FIG. 1A). FimHtrJ96 corresponds to the carbohydrate (mannose) binding domain of FimH from the uropathogenic E. coli strain J96. The dissociation equilibrium constant was determined from this graph at the concentration of mannose […], which corresponds to occupation of half of the binding sites.
Surface Plasmon Resonance measurements were performed on a Biacore3000™. In a first experiment, the kinetic constants and maximal binding were determined for the FimH-antibody interaction. Next, a fixed concentration of FimH (close to the KD of the FimH-antibody interaction) in combination with varying concentrations of carbohydrate, were used to determine the dissociation equilibrium constant of the FimH-saccharide interaction in a competition experiment. Every measurement was repeated at least twice, including testing the variation between different protein and saccharide batches.
To eliminate the possibility of different binding strength for full length FimH and FimHtrJ96, the binding of alpha-D-mannose to FimC:FimH complex was also measured. […] The inhibition of [^3H]-mannose binding was used in a displacement assay to determine the dissociation constant for a synthetic butyl mannoside by measuring the amount of [^3H]-mannose bound to the protein in the presence of increasing amounts of the inhibitor (FIG. 1B). […] To investigate the effect of sequential addition of methyl groups to the O1 oxygen of D-mannose, a series of alkyl mannosides were synthesized and the dissociation constants determined using the [^3H]-mannose displacement assay and by surface plasmon resonance (Table 1).
Surface Plasmon Resonance measurements were performed on a Biacore3000™. The Fab fragments of a monoclonal antibody against FimH were covalently immobilised via lysines at 1000 Resonance Units (1000 pg ligand/mm^2) in flowcell Fc2 on a CM5 biasensor chip (BIAapplications Handbook, Biacore AB, Uppsala, Sweden). Immobilisation buffer was 100 mM NaAc pH 5.0 with 100 mM NaCl. The reference flowcell Fc1 was left blank.
Binding of FimH to the immobilized antibody was measured with a Biacore 3000 instrument in running buffer (phosphate buffered saline with 0.005% surfactant P20 and 3 mM EDTA), on both flowcells Fc1 and Fc2 simultaneously, at a flow rate of 30 μl/min and at 25° C. Complete dissociation of FimH was done with running buffer before starting a new binding cycle. For all measurements, the association time was 3 minutes, the dissociation time was 30 min. All binding cycles were performed in duplicate, including a zero concentration cycle of FimH (injection of running buffer).
In a first experiment, the kinetic constants, ka and kd, and the maximal binding Rmax, were determined for the FimH-antibody interaction (FimH concentrations (nM): 2000, 1000, 500, 250, 125, 62.5, 31.25, 15.625, 7.818, 3.911, 1.957, 0). All analyses were performed with the BIAeval software. A Langmuir binding isotherm with a 1:1 stoichiometry was fitted to the data, from which the kinetic constants and maximal binding were obtained.
In the next experiment, samples containing a fixed concentration of FimH (close to the KD of the FimH-antibody interaction) in combination with varying concentrations of saccharide, were used to determine the dissociation constant of the FimH-saccharide interaction in a competition experiment. First, ten-fold dilutions of the saccharide solution were used to determine the concentration range for binding of the saccharide to FimH.

The next test addresses T2, FimHtrCl#4 (Escherichia coli, UniProt P08191, G94E/N91S/S99N/V48A).
T2 construct: coding for the lectin domain of FimH (residues 1-158) with a C-terminal 6-histidine tag; made in house; host or cells: E. coli HB101 (lacking the fim operon), periplasmic extract, plasmid pMAS146
Type of test: binding, E. coli UPEC (Cl#4) strain. The conditions noted are these: for pKd: Table 3, [3H]-mannose displacement assay (mannose measured directly), read-out: KD CI#4; for ΔG° CI#4: Table 3, calculated from KD. On the procedure: (§1) To investigate if these variations reflect differences in sugar binding at the molecular level, the dissociation constants of a series of mannosides for the FimH lectin domain from a fecal (F18) and from a UPEC (Cl#4) strain were determined. […] For comparison, binding to FimHtrJ96 was also investigated. Both F18 and Cl#4 FimH lectin domains were cloned, expressed, and purified in the same way as FimHtrJ96 (Schembri et al., 2000). These two lectin domains differ from the lectin domain of FimHJ96 by substitutions Val27Ala, Asn70Ser and Ser78Asn. In addition, FimHCl#4 differs from the other two variants by a Gly73Glu substitution. […] Five different tri-mannosides corresponding to high-mannose substructures were synthesized, and their binding to FimHtrJ96, FimHtrF18 and FimHtrCl#4 measured using our [^3H]-mannose displacement assay (Table 3). Alpha-D-mannose binding was first directly measured for each of the FimH variants.
(§2) [^3H]alpha-D-mannose was obtained from Amersham. […] Syntheses of tri-mannosides was as reported earlier by Oscarson and co-workers (1993). Weighed amounts of tri-mannosides were dissolved in double distilled water to give stock solutions of 0.87 M man-(1,2)-man-(1,2)-man, 0.25 M man-(1,2)-man-(1,3)-man, 0.27 M man-(1,2)-man-(1,6)-man, 0.30 M man-(1,3)-man-(1,6)-man, 0.13 M man-(1,6)-man-(1,6)-man. Similarly, alkyl mannosides were dissolved in double distilled water to give stock solutions of 100 mM methyl mannoside, 59.8 mM ethyl mannoside, 45.9 mM propyl mannoside, 51.9 mM butyl mannoside, 17.3 mM pentyl mannoside, 20.8 mM hexyl mannoside, 15.3 mM heptyl mannoside, 15.2 mM octyl mannoside. pNPalphaMan and MeUmbalphaMan (6 mg each) were dissolved in 20 μl DMSO and diluted to 20 mM using double distilled water. Binding experiments were performed using six different concentrations of [^3H]-alpha-D-mannose (final concentrations 43.5 μM, 29.0 μM, 19.3 μM, 12.9 μM, 8.6 μM, 5.7 μM). FimHtrJ96 obtained by growing bacteria in minimal medium was used in all binding experiments. 180 μl protein at a concentration of about 500 nM was mixed with 20 μl of the radioactive ligand, and incubated at 37° C. for 20 min. To separate free ligand from bound, the mixture was rapidly filtrated through a Protran BA 85 Cellulose-nitrate filter (Schleicher & Schuell, Dassel, Germany), and washed once with 1 ml of ice-cold 1× PBS (phosphate buffered saline). Filter-bound radioactivity was measured by scintillation spectrometry within 24 hours. The displacement experiments were performed using six different concentrations (final concentrations in the range 0.0˜43.5 μM) of the inhibitor, in the presence of 43.5 μM [^3H]-alpha-D-mannose. 20 μl radioactive ligand, 20 μl inhibitor at decreasing concentrations, and 160 μl protein (500 nM) were mixed, and the experiments performed as above. All experiments were performed in duplicates. For determination of KD for α-D-mannose, a hyperbolic curve (y=P1x/(P2+x), where P2=KD) was fitted to the data. For the displacement experiments, the curve y=P1/(P2+x), where P2 is the concentration of the inhibitor displacing 50% of the labelled ligand, [I]0.5 was used instead. To calculate the inhibitor dissociation constant (KI) the Cheng & Prusoff equation (KI=[I]0.5/([L]/KL+1); KL is the constant of dissociation for the ligand) (Cheng and Prusoff, 1973), was used when both the concentration of the radioactive ligand (L) and the displacing agent (I) are in excess over the protein (LT>>PT;IT>>PT, T indicates total concentration). […] A plot of IT/((1−Y)*(LT/KL)−Y) against 1/Y gives a straight line with a slope of KI.

In another test the target is T3, FimHtrF18 (Escherichia coli, UniProt P08191, N91S/S99N/V48A).
T3 construct: coding for the lectin domain of FimH (residues 1-158) with a C-terminal 6-histidine tag; made in house; host or cells: E. coli HB101 (lacking the fim operon), periplasmic extract, plasmid pPKL316
The format is binding, E. coli fecal (F18) strain. The conditions noted are these: for pKd: Table 3, [3H]-mannose displacement assay (mannose measured directly), read-out: KD F18; for ΔG° F18: Table 3, calculated from KD. On the procedure:
as §1, §2

Structures are written as SMILES. pKd: −log10 of the molar value.

T1 sequence (P08191 22-179): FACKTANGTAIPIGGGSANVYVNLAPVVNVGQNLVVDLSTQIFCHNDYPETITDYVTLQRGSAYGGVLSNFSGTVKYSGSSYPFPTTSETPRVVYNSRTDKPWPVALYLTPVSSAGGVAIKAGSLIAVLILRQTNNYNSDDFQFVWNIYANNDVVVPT
T2 sequence (P08191 22-179 V48A/N91S/G94E/S99N): as the sequence (P08191 22-179) above, with V27A, N70S, G73E, S78N counted along it
T3 sequence (P08191 22-179 V48A/N91S/S99N): as the sequence (P08191 22-179) above, with V27A, N70S, S78N counted along it

For the molecule `OC[C@H]1O[C@H](OC[C@H]2O[C@H](OC[C@H]3OC(O)[C@@H](O)[C@@H](O)[C@@H]3O)[C@@H](O)[C@@H](O)[C@@H]2O)[C@@H](O)[C@@H](O)[C@@H]1O` (stereo partly drawn) [man-(1,6)-man-(1,6)-man], at FimHtrJ96, the pKd was 5.85 and the “ΔG° J96” value is -8.3 kcal/mol. In addition, on FimHtrCl#4, the pKd is 5.12 and the “ΔG° CI#4” value was -7.3 kcal/mol. On FimHtrF18, the pKd is 5.23 and the “ΔG° F18” value was -7.4 kcal/mol.
In the case of `OC[C@H]1O[C@H](O[C@@H]2[C@@H](OC[C@H]3OC(O)[C@@H](O)[C@@H](O)[C@@H]3O)O[C@H](CO)[C@@H](O)[C@@H]2O)[C@@H](O)[C@@H](O)[C@@H]1O` (stereo partly drawn) [man-(1,2)-man-(1,6)-man], at FimHtrJ96, the pKd is 6.08 and the “ΔG° J96” value is -8.6 kcal/mol. In addition, at FimHtrCl#4, the negative logarithm of the Kd (pKd) was 5.66 and the “ΔG° CI#4” value was -8.0 kcal/mol. In addition, at FimHtrF18, the pKd is 5.74 and the “ΔG° F18” value is -8.1 kcal/mol.
As for `OC[C@H]1O[C@H](O[C@@H]2[C@@H](O[C@@H]3C(O)O[C@H](CO)[C@@H](O)[C@@H]3O)O[C@H](CO)[C@@H](O)[C@@H]2O)[C@@H](O)[C@@H](O)[C@@H]1O` (stereo partly drawn) [man-(1,2)-man-(1,2)-man], at FimHtrJ96, the pKd was 5.80 and the “ΔG° J96” value is -8.2 kcal/mol. For the same molecule, at FimHtrCl#4, the pKd was 5.40 and the “ΔG° CI#4” value is -7.7 kcal/mol. Further, at FimHtrF18, the pKd was 5.49 and the “ΔG° F18” value is -7.8 kcal/mol.
